Key:
kochia [1] = assay: Test C postemergence; assay type: in vivo, Bassia scoparia; conditions: 10 days
How it was run: (§1)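 Visual injury score, 0–100 (100 = complete control), taken 10 days after treatment relative to untreated controls. Pre: directed spray onto soil over sown seeds. Post: foliar spray at one- to two-leaf stage, 2–10 cm. Solvent/surfactant formulation; loam–sand soil; greenhouse.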

sedge, umbrella = assay: Test D flooded paddy test; assay type: in vivo, Cyperus difformis; conditions: 250 g ai/ha, applied to paddy water, visual rating after 13 to 14 days, scale 0 to 100 (0 no effect, 100 complete control)
How it was run: (§2)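 Post-flood water application at the 2-leaf stage; 3 cm flood depth kept constant; visual control rating 0–100 after 13–14 days greenhouse growth.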

oat, wild [2] = assay: Test C preemergence; assay type: in vivo, Avena fatua; conditions: 0 to 100 scale (0 no effect, 100 complete control); for Oat, Wild plant response rating: preemergence
How it was run: as §1

ragweed [3] = assay: Test C preemergence; assay type: in vivo, Ambrosia artemisiifolia; conditions: 0 to 100 scale (0 no effect, 100 complete control); for Ragweed plant response rating: preemergence
How it was run: as §1

blackgrass [4] = assay: Test C preemergence; assay type: in vivo, Alopecurus myosuroides; conditions: 0 to 100 scale (0 no effect, 100 complete control); for Blackgrass plant response rating: preemergence
How it was run: as §1

pigweed, palmer [5] = assay: Test C preemergence; assay type: in vivo, Amaranthus palmeri; conditions: 0 to 100 scale (0 no effect, 100 complete control); for Pigweed, Palmer plant response rating: preemergence
How it was run: as §1

ducksalad = assay: Test D flooded paddy test; assay type: in vivo, Heteranthera limosa; conditions: 250 g ai/ha, applied to paddy water, visual rating after 13 to 14 days, scale 0 to 100 (0 no effect, 100 complete control)
How it was run: as §2

green foxtail [6] = assay: Test C postemergence; assay type: in vivo, Setaria viridis; conditions: 10 days
How it was run: as §1

kochia [7] = assay: Test C preemergence; assay type: in vivo, Bassia scoparia; conditions: 0 to 100 scale (0 no effect, 100 complete control); for Kochia plant response rating: preemergence
How it was run: as §1

pigweed, palmer [8] = assay: Test C postemergence; assay type: in vivo, Amaranthus palmeri; conditions: 10 days
How it was run: as §1

corn [9] = assay: Test C preemergence; assay type: in vivo, Zea mays; conditions: 0 to 100 scale (0 no effect, 100 complete control); for Corn plant response rating: preemergence
How it was run: as §1

corn [10] = assay: Test C postemergence; assay type: in vivo, Zea mays; conditions: 10 days
How it was run: as §1

wheat [11] = assay: Test C preemergence; assay type: in vivo, Triticum aestivum; conditions: 0 to 100 scale (0 no effect, 100 complete control); for Wheat plant response rating: preemergence
How it was run: as §1

barnyardgrass [12] = assay: Test C postemergence; assay type: in vivo, Echinochloa crusgalli; conditions: 10 days
How it was run: as §1

blackgrass [13] = assay: Test C postemergence; assay type: in vivo, Alopecurus myosuroides; conditions: 10 days
How it was run: as §1

ryegrass, Italian [14] = assay: Test C postemergence; assay type: in vivo, Lolium multiflorum; conditions: 10 days
How it was run: as §1

soybean [15] = assay: Test C postemergence; assay type: in vivo, Glycine max; conditions: 10 days
How it was run: as §1

barnyardgrass [16] = assay: Test C preemergence; assay type: in vivo, Echinochloa crusgalli; conditions: 0 to 100 scale (0 no effect, 100 complete control); for Barnyardgrass plant response rating: preemergence
How it was run: as §1

ryegrass, Italian [17] = assay: Test C preemergence; assay type: in vivo, Lolium multiflorum; conditions: 0 to 100 scale (0 no effect, 100 complete control); for Ryegrass, Italian plant response rating: preemergence
How it was run: as §1

rice = assay: Test D flooded paddy test; assay type: in vivo, Oryza sativa; conditions: 250 g ai/ha, applied to paddy water, visual rating after 13 to 14 days, scale 0 to 100 (0 no effect, 100 complete control)
How it was run: as §2

ragweed [18] = assay: Test C postemergence; assay type: in vivo, Ambrosia artemisiifolia; conditions: 10 days
How it was run: as §1

soybean [19] = assay: Test C preemergence; assay type: in vivo, Glycine max; conditions: 0 to 100 scale (0 no effect, 100 complete control); for Soybean plant response rating: preemergence
How it was run: as §1

horseweed = assay: Test C postemergence; assay type: in vivo, Erigeron canadensis; conditions: 10 days
How it was run: as §1

oat, wild [20] = assay: Test C postemergence; assay type: in vivo, Avena fatua; conditions: 10 days
How it was run: as §1

green foxtail [21] = assay: Test C preemergence; assay type: in vivo, Setaria viridis; conditions: 0 to 100 scale (0 no effect, 100 complete control); for Foxtail, Green plant response rating: preemergence
How it was run: as §1

barnyardgrass [22] = assay: Test D flooded paddy test; assay type: in vivo, Echinochloa crus-galli; conditions: 250 g ai/ha, applied to paddy water, visual rating after 13 to 14 days, scale 0 to 100 (0 no effect, 100 complete control)
How it was run: as §2

wheat [23] = assay: Test C postemergence; assay type: in vivo, Triticum aestivum; conditions: 10 days
How it was run: as §1

galium = assay: Test C postemergence; assay type: in vivo, Galium aparine; conditions: 10 days
How it was run: as §1

[24] = 125 g ai/ha, postemergence, 0 to 100 scale, 0 no effect, 100 complete control
[25] = Postemergence, 500 g ai/ha, visual 0 to 100 scale (0 no effect, 100 complete control)
[26] = Preemergence, 500 g ai/ha, visual rating after 10 days
[27] = 500 g ai/ha, postemergence, 0 to 100 scale (0 no effect, 100 complete control)
[28] = Postemergence, 125 g ai/ha, 0 to 100 scale (0 no effect, 100 complete control)

Cc1cccc2c1O[C@@H](C)CN2C(=O)c1cc(-n2cnc(C(C)C)n2)cc2ccoc12 [Compound 227]
Plant response rating, Kochia (kochia [1]; [24]): 90 | Plant response rating, Kochia (kochia [1]; [25]): 100 | Plant response rating, Sedge, Umbrella (Flood) (sedge, umbrella): 98 | Plant response rating, Oat, Wild (oat, wild [2]; [26]): 90 | Oat, Wild plant response rating (oat, wild [2]; Test C, 125 g ai/ha): 90 | Plant response rating, Ragweed (ragweed [3]; [26]): 50 | Ragweed plant response rating (ragweed [3]; Test C, 125 g ai/ha): 0 | Plant response rating, Blackgrass (blackgrass [4]; [26]): 90 | Blackgrass plant response rating (blackgrass [4]; Test C, 125 g ai/ha): 80 | Plant response rating, Pigweed, Palmer (pigweed, palmer [5]; [26]): 100 | Pigweed, Palmer plant response rating (pigweed, palmer [5]; Test C, 125 g ai/ha): 90 | Plant response rating, Ducksalad (Flood) (ducksalad): 80 | Plant response rating, Foxtail, Green (green foxtail [6]; [24]): 80 | Plant response rating, Foxtail, Green (green foxtail [6]; [25]): 90 | Plant response rating, Kochia (kochia [7]; [26]): 100 | Kochia plant response rating (kochia [7]; Test C, 125 g ai/ha): 90 | Plant response rating, Pigweed, Palmer (pigweed, palmer [8]; [24]): 100 | Plant response rating, Pigweed, Palmer (pigweed, palmer [8]; [25]): 100 | Plant response rating, Corn (corn [9]; [26]): 60 | Corn plant response rating (corn [9]; Test C, 125 g ai/ha): 50 | Plant response rating, Corn (corn [10]; [24]): 20 | Plant response rating, Corn (corn [10]; [25]): 80 | Plant response rating, Wheat (wheat [11]; [26]): 30 | Wheat plant response rating (wheat [11]; Test C, 125 g ai/ha): 0 | Plant response rating, Barnyardgrass (barnyardgrass [12]; [24]): 40 | Plant response rating, Barnyardgrass (barnyardgrass [12]; [25]): 70 | Plant response rating, Blackgrass (blackgrass [13]; [24]): 50 | Plant response rating, Blackgrass (blackgrass [13]; [25]): 80 | Plant response rating, Ryegrass, Italian (ryegrass, Italian [14]; [24]): 90 | Plant response rating, Ryegrass, Italian (ryegrass, Italian [14]; [25]): 100 | Plant response rating, Soybean (soybean [15]; [24]): 100 | Plant response rating, Soybean (soybean [15]; [25]): 100 | Plant response rating, Barnyardgrass (barnyardgrass [16]; [26]): 90 | Barnyardgrass plant response rating (barnyardgrass [16]; Test C, 125 g ai/ha): 80 | Plant response rating, Ryegrass, Italian (ryegrass, Italian [17]; [26]): 90 | Ryegrass, Italian plant response rating (ryegrass, Italian [17]; Test C, 125 g ai/ha): 90 | Plant response rating, Rice (Flood) (rice): 10 | Plant response rating, Ragweed (ragweed [18]; [24]): 10 | Plant response rating, Ragweed (ragweed [18]; [25]): 50 | Plant response rating, Soybean (soybean [19]; [26]): 90 | Soybean plant response rating (soybean [19]; Test C, 125 g ai/ha): 70 | Plant response rating, Horseweed (horseweed; [24]): 20 | Plant response rating, Horseweed (horseweed; [25]): 40 | Plant response rating, Oat, Wild (oat, wild [20]; [24]): 30 | Plant response rating, Oat, Wild (oat, wild [20]; [25]): 60 | Plant response rating, Foxtail, Green (green foxtail [21]; [26]): 100 | Foxtail, Green plant response rating (green foxtail [21]; Test C, 125 g ai/ha): 100 | Plant response rating, Barnyardgrass (Flood) (barnyardgrass [22]): 50 | Plant response rating, Wheat (wheat [23]; [24]): 20 | Plant response rating, Wheat (wheat [23]; [25]): 60 | Plant response rating, Galium (galium; [24]): 100 | Plant response rating, Galium (galium; [25]): 100

Cc1cccc2c1O[C@@H](C)CN2C(=O)c1cccc(-n2cnc([N+](=O)[O-])n2)c1 [Compound 306]
Plant response rating, Kochia (kochia [1]; [27]): 10 | Plant response rating, Kochia (kochia [1]; [28]): 10 | Plant response rating, Sedge, Umbrella (Flood) (sedge, umbrella): 0 | Oat, Wild plant response rating (oat, wild [2]; 500 g ai/ha): 0 | Oat, Wild plant response rating (oat, wild [2]; Test C, 125 g ai/ha): 0 | Ragweed plant response rating (ragweed [3]; 500 g ai/ha): 20 | Ragweed plant response rating (ragweed [3]; Test C, 125 g ai/ha): 20 | Blackgrass plant response rating (blackgrass [4]; 500 g ai/ha): 0 | Pigweed, Palmer plant response rating (pigweed, palmer [5]; 500 g ai/ha): 10 | Pigweed, Palmer plant response rating (pigweed, palmer [5]; Test C, 125 g ai/ha): 0 | Plant response rating, Ducksalad (Flood) (ducksalad): 0 | Plant response rating, Foxtail, Green (green foxtail [6]; [27]): 50 | Plant response rating, Foxtail, Green (green foxtail [6]; [28]): 30 | Kochia plant response rating (kochia [7]; 500 g ai/ha): 0 | Kochia plant response rating (kochia [7]; Test C, 125 g ai/ha): 0 | Plant response rating, Pigweed, Palmer (pigweed, palmer [8]; [27]): 20 | Plant response rating, Pigweed, Palmer (pigweed, palmer [8]; [28]): 0 | Corn plant response rating (corn [9]; 500 g ai/ha): 0 | Corn plant response rating (corn [9]; Test C, 125 g ai/ha): 0 | Plant response rating, Corn (corn [10]; [27]): 10 | Plant response rating, Corn (corn [10]; [28]): 0 | Wheat plant response rating (wheat [11]; 500 g ai/ha): 0 | Wheat plant response rating (wheat [11]; Test C, 125 g ai/ha): 0 | Plant response rating, Barnyardgrass (barnyardgrass [12]; [27]): 10 | Plant response rating, Barnyardgrass (barnyardgrass [12]; [28]): 10 | Plant response rating, Blackgrass (blackgrass [13]; [27]): 10 | Plant response rating, Blackgrass (blackgrass [13]; [28]): 0 | Plant response rating, Ryegrass, Italian (ryegrass, Italian [14]; [27]): 0 | Plant response rating, Ryegrass, Italian (ryegrass, Italian [14]; [28]): 0 | Plant response rating, Soybean (soybean [15]; [27]): 90 | Plant response rating, Soybean (soybean [15]; [28]): 30 | Barnyardgrass plant response rating (barnyardgrass [16]; 500 g ai/ha): 0 | Barnyardgrass plant response rating (barnyardgrass [16]; Test C, 125 g ai/ha): 0 | Ryegrass, Italian plant response rating (ryegrass, Italian [17]; 500 g ai/ha): 40 | Ryegrass, Italian plant response rating (ryegrass, Italian [17]; Test C, 125 g ai/ha): 30 | Plant response rating, Rice (Flood) (rice): 0 | Plant response rating, Ragweed (ragweed [18]; [27]): 0 | Plant response rating, Ragweed (ragweed [18]; [28]): 30 | Soybean plant response rating (soybean [19]; 500 g ai/ha): 0 | Soybean plant response rating (soybean [19]; Test C, 125 g ai/ha): 0 | Plant response rating, Horseweed (horseweed; [27]): 0 | Plant response rating, Horseweed (horseweed; [28]): 30 | Plant response rating, Oat, Wild (oat, wild [20]; [27]): 0 | Plant response rating, Oat, Wild (oat, wild [20]; [28]): 0 | Foxtail, Green plant response rating (green foxtail [21]; 500 g ai/ha): 50 | Foxtail, Green plant response rating (green foxtail [21]; Test C, 125 g ai/ha): 0 | Plant response rating, Barnyardgrass (Flood) (barnyardgrass [22]): 0 | Plant response rating, Wheat (wheat [23]; [27]): 10 | Plant response rating, Wheat (wheat [23]; [28]): 0 | Plant response rating, Galium (galium; [27]): 50 | Plant response rating, Galium (galium; [28]): 30

Reference: US20260262643A1, “HERBICIDAL BENZOXAZINES” (FMC CORPORATION, priority 2022, published 2026)
